Among the data in publication PMC9516332 (Frontiers in Oncology, 2022) are inhibition values, retold here.

Common to all, as to assay: Kinase panel profiling at 1 µmol/L (MSA or IMAP), percentage inhibition
What all share (assay type): biochemical

For assay [1], the target named is T1, panel of 255 wild-type kinases (Homo sapiens, UniProt P42680).
T1 sequence (P42680 1-631): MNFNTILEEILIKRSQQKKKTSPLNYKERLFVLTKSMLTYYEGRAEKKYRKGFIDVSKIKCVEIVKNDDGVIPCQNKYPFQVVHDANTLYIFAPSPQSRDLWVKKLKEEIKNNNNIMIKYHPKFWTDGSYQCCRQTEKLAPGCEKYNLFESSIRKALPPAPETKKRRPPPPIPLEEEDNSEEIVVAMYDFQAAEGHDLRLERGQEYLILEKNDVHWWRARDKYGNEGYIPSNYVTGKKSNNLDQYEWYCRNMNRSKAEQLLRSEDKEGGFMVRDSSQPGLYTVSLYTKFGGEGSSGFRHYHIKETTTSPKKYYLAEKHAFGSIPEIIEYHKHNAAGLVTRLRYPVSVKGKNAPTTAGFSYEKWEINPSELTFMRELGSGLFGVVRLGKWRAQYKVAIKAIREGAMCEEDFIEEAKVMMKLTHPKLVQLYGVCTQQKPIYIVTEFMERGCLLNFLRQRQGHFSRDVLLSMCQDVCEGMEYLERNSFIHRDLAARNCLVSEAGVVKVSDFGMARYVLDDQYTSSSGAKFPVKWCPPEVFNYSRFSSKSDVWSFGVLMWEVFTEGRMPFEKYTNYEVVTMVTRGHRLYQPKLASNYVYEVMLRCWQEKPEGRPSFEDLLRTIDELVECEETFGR
The settings on record: kinase TEC; 1 µmol/L single concentration; read-out: %-inhibition at 1 µmol/L, TEC.

For assay [2], the target named is panel of 255 wild-type kinases (Homo sapiens, UniProt P06241). The settings on record: kinase FYN [isoform a]; 1 µmol/L single concentration; read-out: %-inhibition at 1 µmol/L, FYN [isoform a].
The target of assay [3] is panel of 255 wild-type kinases (Homo sapiens, UniProt P05129). To be noted: kinase PKCγ; 1 µmol/L single concentration; read-out: %-inhibition at 1 µmol/L, PKCγ.
Assay [4] has as its target panel of 255 wild-type kinases (Homo sapiens, UniProt P06493). The settings on record: CDC2/CycB1 kinase assay; 1 µmol/L single concentration; read-out: %-inhibition CDC2/CycB1.
Assay [5] deals with panel of 255 wild-type kinases (Homo sapiens, UniProt P07948). The settings on record: kinase LYNa; 1 µmol/L single concentration; read-out: %-inhibition at 1 µmol/L, LYNa.
Assay [6] deals with T2, panel of 255 wild-type kinases (Homo sapiens, UniProt Q16832).
T2 sequence (Q16832 22-855): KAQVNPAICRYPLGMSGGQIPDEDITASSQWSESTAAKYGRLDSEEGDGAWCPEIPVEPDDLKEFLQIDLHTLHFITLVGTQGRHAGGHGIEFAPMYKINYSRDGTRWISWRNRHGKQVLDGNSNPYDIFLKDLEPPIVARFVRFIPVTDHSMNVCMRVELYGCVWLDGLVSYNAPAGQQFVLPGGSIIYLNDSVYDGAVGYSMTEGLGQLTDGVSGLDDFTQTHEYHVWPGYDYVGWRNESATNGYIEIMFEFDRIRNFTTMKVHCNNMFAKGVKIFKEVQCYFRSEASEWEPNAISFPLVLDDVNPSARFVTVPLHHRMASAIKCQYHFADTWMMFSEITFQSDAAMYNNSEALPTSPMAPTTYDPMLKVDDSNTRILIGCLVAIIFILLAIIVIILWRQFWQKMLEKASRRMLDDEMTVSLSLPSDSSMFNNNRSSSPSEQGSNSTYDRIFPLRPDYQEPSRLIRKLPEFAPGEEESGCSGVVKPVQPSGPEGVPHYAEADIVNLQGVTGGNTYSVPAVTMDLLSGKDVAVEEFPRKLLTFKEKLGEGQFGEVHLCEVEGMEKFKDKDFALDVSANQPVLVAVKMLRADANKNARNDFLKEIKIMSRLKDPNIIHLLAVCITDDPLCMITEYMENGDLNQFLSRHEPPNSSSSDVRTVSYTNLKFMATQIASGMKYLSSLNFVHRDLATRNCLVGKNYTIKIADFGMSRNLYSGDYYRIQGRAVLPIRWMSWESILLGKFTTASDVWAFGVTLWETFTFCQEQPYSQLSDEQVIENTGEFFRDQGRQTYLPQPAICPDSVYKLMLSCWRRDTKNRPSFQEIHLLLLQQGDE
To be noted: kinase DDR2; 1 µmol/L single concentration; read-out: %-inhibition at 1 µmol/L, DDR2.

For assay [7], the target named is panel of 255 wild-type kinases (Homo sapiens, UniProt Q9Y5S2). To be noted: MRCKβ; 1 µmol/L single concentration; read-out: %-inhibition, MRCKβ.
The target of assay [8] is panel of 255 wild-type kinases (Homo sapiens, UniProt P07332). The settings on record: kinase FES; 1 µmol/L single concentration; read-out: %-inhibition at 1 µmol/L, FES.
Assay [9] deals with panel of 255 wild-type kinases (Homo sapiens, UniProt P41240). To be noted: kinase CSK; 1 µmol/L single concentration; read-out: %-inhibition at 1 µmol/L, CSK.
Assay [10] addresses panel of 255 wild-type kinases (Homo sapiens, UniProt P08581). To be noted: MET; 1 µmol/L single concentration.
The target in assay [11] is panel of 255 wild-type kinases (Homo sapiens, UniProt P78368). To be noted: kinase CK1γ2; 1 µmol/L single concentration; read-out: %-inhibition at 1 µmol/L, CK1γ2.
The target in assay [12] is T3, panel of 255 wild-type kinases (Homo sapiens, UniProt Q9HBY8).
T3 sequence (Q9HBY8 1-367): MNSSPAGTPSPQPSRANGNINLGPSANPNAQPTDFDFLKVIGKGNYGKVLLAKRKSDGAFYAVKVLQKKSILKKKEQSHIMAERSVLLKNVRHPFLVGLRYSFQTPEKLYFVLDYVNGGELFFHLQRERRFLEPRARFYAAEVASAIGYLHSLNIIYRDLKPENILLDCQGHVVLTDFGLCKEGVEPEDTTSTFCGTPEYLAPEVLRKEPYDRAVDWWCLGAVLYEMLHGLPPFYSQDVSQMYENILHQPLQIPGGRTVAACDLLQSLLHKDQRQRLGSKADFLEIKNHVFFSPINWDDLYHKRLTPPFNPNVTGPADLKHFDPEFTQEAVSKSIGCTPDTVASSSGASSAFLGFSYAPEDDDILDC
The settings on record: kinase SGK2; 1 µmol/L single concentration; read-out: %-inhibition at 1 µmol/L, SGK2.

On to `CCn1c(=O)c(-c2cc(NC(=O)Nc3ccccc3)c(F)cc2Br)cc2cnc(NC)cc21` [ripretinib], for which the inhibition at 1 µM in [1] is 5.66%; in [2], 23%; in assay [3], 0.0973%; in [4] it was -5.56%; in assay [5] it was 85%; in [6], 98%. Further, the inhibition at 1 µM in [7] was -1.41%; in [8], 23%; in assay [9], 50%; in assay [10], 8%; in [11], -2.31%; in assay [12] it was -5%.

With `COc1ccc(CN2C3CC2CN(c2ccc(-c4cc(OCC(C)(C)O)cn5ncc(C#N)c45)cn2)C3)cn1` [selpercatinib], the inhibition at 1 µM was 37% in assay [1]; 24% in [2]; -0.427% in [3]; -4% in assay [4]; 60% in [5]; 73% in [6]. Besides, the inhibition at 1 µM in assay [7] is -3.65%; in [8], 15%; in assay [9] it was 1.77%; in assay [10] it was 23%; in [11] it was -2.46%; in assay [12], 10%.

Turning to `Cn1cnc2c(F)c(Nc3ccc(Br)cc3Cl)c(C(=O)NOCCO)cc21` [selumetinib], the inhibition at 1 µM in assay [1] is 16%; in [2] it was -3.52%; in assay [3] it was -0.133%; in assay [4], -11%; in assay [5], 6.53%; in [6] it was -0.119%. In addition, the inhibition at 1 µM was 0.656% in assay [7]; -3.3% in assay [8]; 0.0795% in assay [9]; -0.807% in [10]; -1.66% in assay [11]; -5% in assay [12].

With `Cc1cc(Nc2ncnc3ccc(NC4=NC(C)(C)CO4)cc23)ccc1Oc1ccn2ncnc2c1` [tucatinib], the inhibition at 1 µM was 18% in [1]; 2.29% in assay [2]; -1.73% in assay [3]; -7% in assay [4]; 7% in assay [5]; 10% in assay [6]. Moreover, the inhibition at 1 µM in assay [7] was 2%; in assay [8], 1.74%; in assay [9], 6%; in assay [10], 5.33%; in assay [11], -4%; in assay [12] it was -4%.
